Test results taken from patent publication EP2368895A1, “Ferrocenyl flavonoids” (Centre National de la Recherche Scientifique (CNRS), priority 2010, dated 2011).

Tested on: Murine B16 melanoma cells
Details: for IC50: murine B16 melanoma cells, MTT, 48 h exposure time, mean ± SD of 3 determinations
Method: Murine B16 melanoma cells were grown in Dulbecco's modified essential medium (DMEM) containing 2 mM L-glutamine, 10% fetal bovine serum, 100 U/ml penicillin and 100 µg/ml streptomycin (37°C, 5% CO2). Stock solutions of the compounds were prepared in DMSO and further diluted in DMEM at the indicated concentrations with a final DMSO concentration of not exceeding 1%. Exponentially growing cells were plated onto 96-well plates at a density of 5000 cells per well in 200 µl DMEM, and 24 h later the compounds were added for another 48 h. Control wells were exposed to 1% DMSO. Viability was assessed using the MTT (1-(4,5-dimethylthiazol-2-yl)-3,5-diphenyltetrazolium) test and absorbance was read at 562 nm in a microplate reader (BioKinetics Reader, EL340) (Carmichael et al. 1987).

Q: “2-ferrocenyl-4H-chromen-4-one [Compound 2a]” was tested. Which IC50 did it give?
A: 33.9 ± 0.8 µM

Q: “6,8-dibromo-2-ferrocenyl-4H-chromen-4-one [Compound 2e]” was tested. Which IC50 did it give?
A: 13.7 ± 1 µM

Q: For “6,8-dichloro-2-ferrocenyl-4H-chromen-4-one [Compound 2d]”, which IC50 is on record?
A: 12.1 ± 0.4 µM

Q: With “6,8-difluoro-2-ferrocenyl-4H-chromen-4-one [Compound 2f]” as the substance, how does the IC50 read?
A: 18 ± 0.2 µM

Q: Which IC50 does the source give for “6-bromo-2-ferrocenyl-4H-chromen-4-one [Compound 2c]” here?
A: 15.9 ± 0.3 µM

Q: With “6-chloro-2-ferrocenyl-4H-chromen-4-one [Compound 2b]” as the substance, how does the IC50 read?
A: 15.6 ± 0.3 µM

Q: For “(E)-1-(2-hydroxyphenyl)-3-ferrocenylprop-2-en-1-one [Compound 1a]”, which IC50 is on record?
A: 43.7 ± 1.8 µM

Q: “(E)-1-(3,5-dibromo-2-hydroxyphenyl)-3-ferrocenylprop-2-en-1-one [Compound 1e]” was tested. Which cytotoxic activity did it give?
A: decrease in cytotoxic activity

Q: What about the IC50 of the same substance?
A: 84.2 ± 4.8 µM

Q: How did the cytotoxic activity turn out when “(E)-1-(3,5-dichloro-2-hydroxyphenyl)-3-ferrocenylprop-2-en-1-one [Compound 1d]” was run?
A: decrease in cytotoxic activity

Q: And the IC50?
A: 73.6 ± 2.6 µM

Q: Which results are given for “(E)-1-(3,5-difluoro-2-hydroxyphenyl)-3-ferrocenylprop-2-en-1-one [Compound 1f]”?
A: cytotoxic activity: decrease in cytotoxic activity; IC50: 49.4 ± 1.3 µM

Q: For “(E)-1-(5-bromo-2-hydroxyphenyl)-3-ferrocenylprop-2-en-1-one [Compound 1c]”, which IC50 is on record?
A: 44.6 ± 2.8 µM

Q: Which IC50 does the source give for “(E)-1-(5-chloro-2-hydroxyphenyl)-3-ferrocenylprop-2-en-1-one [Compound 1b]” here?
A: 29.5 ± 1.8 µM
